Data published in patent US7759510B2, “Platinum complexes and methods of use” (University of South Florida, priority 2003, dated 2010).

Key:
[1] = biological target: T1, Stat3 (Mus musculus, UniProt P42227); assay: EMSA of nuclear extracts, Stat3 DNA-binding activity to hSIE probe; assay type: biochemical; details: in vitro
T1 construct: Nuclear extracts were prepared from NIH3T3/hEGFR cell that overexpress human epidermal growth factor (EGF) receptor and stimulated with EGF; endogenous in cells; host or cells: NIH3T3/hEGFR fibroblasts, EGF-stimulated (6 ng/ml, 15 min), nuclear extract
T1 sequence (P42227 whole entry): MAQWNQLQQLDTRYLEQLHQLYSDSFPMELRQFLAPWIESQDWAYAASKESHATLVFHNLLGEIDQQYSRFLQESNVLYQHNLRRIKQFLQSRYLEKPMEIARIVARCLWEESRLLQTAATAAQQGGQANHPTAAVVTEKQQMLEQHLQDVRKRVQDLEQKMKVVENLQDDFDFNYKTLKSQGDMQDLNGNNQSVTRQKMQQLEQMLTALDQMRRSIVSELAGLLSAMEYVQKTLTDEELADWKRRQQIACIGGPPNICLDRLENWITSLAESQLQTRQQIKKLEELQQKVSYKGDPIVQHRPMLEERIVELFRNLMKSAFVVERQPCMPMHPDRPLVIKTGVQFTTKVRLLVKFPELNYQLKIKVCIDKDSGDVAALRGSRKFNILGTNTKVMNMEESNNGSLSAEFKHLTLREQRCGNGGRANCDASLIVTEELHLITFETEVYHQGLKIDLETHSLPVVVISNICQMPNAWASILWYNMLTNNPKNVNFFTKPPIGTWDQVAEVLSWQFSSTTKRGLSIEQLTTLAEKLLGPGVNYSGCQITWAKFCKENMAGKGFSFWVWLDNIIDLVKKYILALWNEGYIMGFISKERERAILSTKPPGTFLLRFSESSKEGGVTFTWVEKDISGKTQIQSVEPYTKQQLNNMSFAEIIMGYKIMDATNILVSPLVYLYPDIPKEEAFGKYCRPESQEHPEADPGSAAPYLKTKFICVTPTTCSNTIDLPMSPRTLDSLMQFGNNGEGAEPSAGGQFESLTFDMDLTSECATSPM
Method: Nuclear Extract Preparation and Analysis by EMSA of HK-Designated Platinum Complexes.
Nuclear extracts were prepared from NIH3T3/hEGFR cell that overexpress human epidermal growth factor (EGF) receptor and stimulated with EGF (6 ng/ml) for 15 min. Nuclear extracts were pre-incubated with compounds for 30 min at room temperature prior to incubation with radiolabeled probe. The ^32P-labeled oligonucleotide probe used is hSIE (high affinity sis-inducible element, m67 variant, 5′-[…]-3′) (SEQ ID NO:1) that binds both Stat1 and Stat3.
Other platinum (IV) complexes were evaluated for inhibitory activity against STAT DNA-binding in vitro.

[2] = test system: A549 cells; assay: MTT assay, percent survival of A549 cells; assay type: cell-based; details: A549; for IC50: Table 2, linear trend from percent survival vs. concentration data of Table 1, read-out: Calculated IC 50 (uM concentration)
Method: 1. Prepare a suspension of A549 cells at 2×10^5 cells per mL in supplemented DMEM/F12 growth medium.
2. Plate 2×10^4 cells per well in a 96 well cell culture plate by adding 100 μL of stock suspension to each well.
3. For each platinum compound (already in solution), prepare a readily usable stock solution in DMEM/F12 medium.
4. For each compound generate triplicate trials of 0, 10, 20, 30, 40, 50, 60, and 70 μM concentration. This is achieved in situ by adding appropriate volumes of stock solution to each well along with the volume of untreated medium necessary to generate the desired concentration in a final volume of 200 μL.
5. Gently agitate plates to mix contents. Incubate at 37° C., 7% CO2 for 45 hours.
6. Add 20 μL of 5 mg/mL MTT solution (in PBS) to each well.
7. Gently agitate plates to mix contents and incubate an additional 3 hours to allow product development.
8. Remove plates from incubator and agitate to cause settling of formazan product.
9. Aspirate out liquid contents of each well using needle and syringe and discard.
10. Add 200 μL DMSO to each well to dissolve formazan product.
11. Agitate plates until all of the formazan product is in solution and no purple crystals remain on the bottom surface of the wells.
12. Read the absorbance of each well at […] using Varian software for Cary 50 UV-vis Spectrophotometer with fiber optic probe accessory.
(§1) MTT assays are used for the quantitative determination of cellular proliferation and activation and for the quantitation of in vitro tumor cell sensitivity to anti-cancer compounds. The assay is based on the cleavage of the yellow tetrazolium salt MTT into purple colored formazan by metabolically active cells. Solubilized formazan product can be photometrically quantitated using an ELISA plate reader. A decrease in the number of living cells results in a decrease in total metabolic activity which leads to a decrease in color formation. Platinum complexes of the present invention were tested in MTT assays using A549 cells to determine anti-cancer cell activity. […] FIGS. 1, 2, and 4 show percent survival versus platinum complex concentration in graphical form.
as §1, with “FIGS. 8, 9,” for “FIGS. 1, 2,”, “and 11” for “and 4”

Structure (SMILES)	Disruption of Stat3 activity / ability to bind its consensus binding sequence [1]	Average Absorbance ([2]; Table 1, 10 μM)	Percent Survival ([2]; Table 1, 10 μM) [%]	Average Absorbance ([2]; Table 1, 20 μM)	Percent Survival ([2]; Table 1, 20 μM) [%]	Average Absorbance ([2]; Table 1, 30 μM)	Percent Survival ([2]; Table 1, 30 μM) [%]	Average Absorbance ([2]; Table 1, 40 μM)	Percent Survival ([2]; Table 1, 40 μM) [%]	Average Absorbance ([2]; Table 1, 50 μM)	Percent Survival ([2]; Table 1, 50 μM) [%]	Average Absorbance ([2]; Table 1, 60 μM)	Percent Survival ([2]; Table 1, 60 μM) [%]	IC50 [2] [µM]	Average Absorbance ([2]; Table 3, 10 μM)	Percent Survival ([2]; Table 3, 10 μM) [%]	Average Absorbance ([2]; Table 3, 20 μM)	Percent Survival ([2]; Table 3, 20 μM) [%]	Average Absorbance ([2]; Table 3, 30 μM)	Percent Survival ([2]; Table 3, 30 μM) [%]	also measured
[NH2][Pt]([NH2])([Cl])([Cl])([N+](=O)[O-])[o+]1c2cc(=O)ccc-2c(-c2ccccc2C(=O)O)c2ccc(O)cc21 [CPA-39]	strongly disrupt Stat3 activity	2.5313	107.2085	2.4307	102.9478	2.3599	99.9492	1.9611	83.0587	1.0318	43.7000	0.7776	32.9338	56.4	2.6556	108.7069	2.4616	100.7655	2.0894	85.5295	Average Absorbance ([2]; Table 1, 70 μM): 0.9798; Percent Survival ([2]; Table 1, 70 μM): 41.4976%; Average Absorbance ([2]; Table 3, 40 μM): 1.3568; Percent Survival ([2]; Table 3, 40 μM): 55.5405%; Average Absorbance ([2]; Table 3, 50 μM): 0.6566; Percent Survival ([2]; Table 3, 50 μM): 26.8779%; Average Absorbance ([2]; Table 3, 60 μM): 0.6086; Percent Survival ([2]; Table 3, 60 μM): 24.9130%; Average Absorbance ([2]; Table 3, 70 μM): 0.6166; Percent Survival ([2]; Table 3, 70 μM): 25.2405%
[NH2][Pt]([NH2])([Cl])([Cl])([Br])[N+](=O)[O-] [CPA-10]	strongly disrupt Stat3 activity	–	–	–	–	–	–	–	–	–	–	–	–	–	–	–	–	–	–	–	–
CCN(CC)c1ccc2c(-c3ccccc3C(=O)O)c3ccc(=[N+](CC)CC)cc-3[o+]([Pt]([NH2])([NH2])([Cl])([Cl])[N+](=O)[O-])c2c1.[Cl-] [CPA-46]	strongly disrupt Stat3 activity	2.4032	101.7831	2.2978	97.3190	2.2671	96.0188	1.8618	78.8531	1.0285	43.5602	0.7041	29.8208	52.9	2.5773	105.5017	2.4118	98.7269	1.9637	80.3840	Average Absorbance ([2]; Table 3, 40 μM): 1.2044; Percent Survival ([2]; Table 3, 40 μM): 49.3021%; Average Absorbance ([2]; Table 3, 50 μM): 0.6282; Percent Survival ([2]; Table 3, 50 μM): 25.7153%; Average Absorbance ([2]; Table 3, 60 μM): 0.6446; Percent Survival ([2]; Table 3, 60 μM): 26.3867%; Average Absorbance ([2]; Table 3, 70 μM): 0.6165; Percent Survival ([2]; Table 3, 70 μM): 25.2364%
Nc1cccc2c(=O)[nH][n]([Pt]([NH2])([NH2])([Cl])([Cl])[N+](=O)[O-])c(=O)c12 [CPA-51]	strongly disrupt Stat3 activity	2.4925	105.5652	2.5760	109.1017	2.3214	98.3186	2.0616	87.3152	1.3869	58.7396	0.8807	37.3004	61.2	2.4744	101.2895	2.4868	101.7970	2.0998	85.9552	Average Absorbance ([2]; Table 1, 70 μM): 1.0819; Percent Survival ([2]; Table 1, 70 μM): 45.8219%; Average Absorbance ([2]; Table 3, 40 μM): 1.4758; Percent Survival ([2]; Table 3, 40 μM): 60.4118%; Average Absorbance ([2]; Table 3, 50 μM): 0.9352; Percent Survival ([2]; Table 3, 50 μM): 38.2824%; Average Absorbance ([2]; Table 3, 60 μM): 0.7084; Percent Survival ([2]; Table 3, 60 μM): 28.9983%; Average Absorbance ([2]; Table 3, 70 μM): 0.7058; Percent Survival ([2]; Table 3, 70 μM): 28.8919%
